Test results reported in patent US11932637B2, “Chromane amidine monobactam compounds for the treatment of bacterial infections” (priority 2021, dated 2024).

How the values were obtained:
Assay type in all cases: cell-based
[1] = tested on: Acinetobacter baumannii expressing TEM-1, AmpC, and Oxa-24/40 (CL6188); details: concentration inhibiting 95% of bacterial growth; with BLi Relebactam 4 μg/mL; 22 hours; OD600
Procedure: (§1) Biological Assays Antibiotic Activity: Determination of Growth Inhibitory Concentration The concentrations of compounds required to inhibit the growth of various strains of bacteria were determined in an assay that assessed bacterial growth by measuring optical density at 600 nm (OD600). The bacterial strains tested included the clinical strains Escherichia coli expressing NDM-1 (CLB30016), Klebsiella pneumoniae expressing KPC-1 (CL6569), Acinetobacter baumannii expressing TEM-1, AmpC, and Oxa-24/40 (CL6188) and Pseudomonas aeruginosa expressing AmpC (CL5701). All compounds were tested in the presence of a β lactamase inhibitor (BLi, Relebactam) in 384-well microplates.
(§2) The clinical strains were stored as frozen single use stocks, thawed and diluted into 1.1× cation-adjusted Mueller-Hinton II broth to achieve approximately 2×10^5 CFU/mL. Test compounds were dissolved in DMSO and diluted 1:50 in the assay, resulting in a final concentration range of 100 μM to 0.098 μM. On the day of the assay, 1 μL of test compound was added to the plate followed by 4 μL of 50 μg/mL BLi in MOPS buffer and 45 μL of diluted bacteria. Plates were centrifuged at 1000 rpm for 30 seconds, shaken at approximately 800 rpm for 1 minute, and incubated at 35 t 2° C. for 22 hours. The concentration of BLi used in the assay was 4 μg/mL. At the end of the incubation, absorbance at 600 nm was determined using a spectrophotometer. Inhibition was quantitated by identifying the lowest concentration of test compound that was required to inhibit 95% of the growth of the bacteria.

[2] = tested on: Pseudomonas aeruginosa expressing AmpC (CL5701); assay: Antibiotic activity: growth inhibitory concentration (OD600), P. aeruginosa CL5701; details: concentration inhibiting 95% of bacterial growth, with BLi Relebactam 4 μg/mL, 22 hours
Procedure: as §1, §2

[3] = tested on: Escherichia coli expressing NDM-1 (CLB30016); assay: Antibiotic activity: growth inhibitory concentration (OD600), E. coli CLB30016; details: concentration inhibiting 95% of bacterial growth, with BLi Relebactam 4 μg/mL, 22 hours
Procedure: as §1, §2

Structure (SMILES)	AB_CL6188 MITC95 [1]	PA_CL5701 MITC95 [2]	EC_CLB30016 MITC95 [3]
CC1(C)[C@H](NC(=O)/C(=N\O[C@](C)(C(=O)O)[C@H]2CCc3cc(C(=N)N[C@H]4C[C@](N)(CC(O)CO)C4)ccc3O2)c2csc(N)n2)C(=O)N1OS(=O)(=O)O (stereo partly drawn) [Compound 96, (S)-2-((R)-6-(N-((1R,3S)-3-amino-3-((S)-2,3-dihydroxypropyl)cyclobutyl)-carbamimidoyl)chroman-2-yl)-2-((((Z)-1-(2-aminothiazol-4-yl)-2-(((S)-2,2-dimethyl-4-oxo-1-(sulfooxy)azetidin-3-yl)amino)-2-oxoethylidene)amino)oxy)propanoic acid]	6.25 µM	1.563 µM	–
COC[C@]1(NC(=N)c2ccc3c(c2)CC[C@H]([C@](C)(O/N=C(\C(=O)N[C@@H]2C(=O)N(OS(=O)(=O)O)C2(C)C)c2csc(N)n2)C(=O)O)O3)CC[C@@H](N)CC1 [Compound 126, (S)-2-((R)-6-(N-((1s,4S)-4-amino-1-(methoxymethyl)cyclohexyl)carbamimidoyl)chroman-2-yl)-2-((((Z)-1-(2-aminothiazol-4-yl)-2-(((S)-2,2-dimethyl-4-oxo-1-(sulfooxy)azetidin-3-yl)amino)-2-oxoethylidene)amino)oxy)propanoic acid]	–	6.25 µM	25 µM
CC1(C)[C@H](NC(=O)/C(=N\O[C@](C)(C(=O)O)[C@H]2CCc3cc(C(=N)NC4CC(N)(C[C@H](O)CO)C4)ccc3O2)c2csc(N)n2)C(=O)N1OS(=O)(=O)O (stereo partly drawn) [Compound 94, (S)-2-((R)-6-(N-((1S,3R)-3-amino-3-((S)-2,3-dihydroxypropyl)cyclobutyl)carbamimidoyl)chroman-2-yl)-2-((((Z)-1-(2-aminothiazol-4-yl)-2-(((S)-2,2-dimethyl-4-oxo-1-(sulfooxy)azetidin-3-yl)amino)-2-oxoethylidene)amino)oxy)propanoic acid]	6.25 µM	1.563 µM	–
COC[C@]1(NC(=N)c2ccc3c(c2)CC[C@H]([C@](C)(O/N=C(\C(=O)N[C@@H]2C(=O)N(OS(=O)(=O)O)C2(C)C)c2csc(N)n2)C(=O)O)O3)CC[C@H](N)CC1 [Compound 127, (S)-2-((R)-6-(N-((1r,4R)-4-amino-1-(methoxymethyl)cyclohexyl)carbamimidoyl)chroman-2-yl)-2-((((Z)-1-(2-aminothiazol-4-yl)-2-(((S)-2,2-dimethyl-4-oxo-1-(sulfooxy)azetidin-3-yl)amino)-2-oxoethylidene)amino)oxy)propanoic acid]	–	3.125 µM	–
CC1(C)[C@H](NC(=O)/C(=N\O[C@](C)(C(=O)O)[C@H]2CCc3cc(C(=N)N[C@H]4C[C@@]5(CCNC5)C4)ccc3O2)c2csc(N)n2)C(=O)N1OS(=O)(=O)O [Compound 23, (S)-2-((R)-6-(N-((2s,4R)-6-azaspiro[3.4]octan-2-yl)carbamimidoyl)chroman-2-yl)-2-((((Z)-1-(2-aminothiazol-4-yl)-2-(((S)-2,2-dimethyl-4-oxo-1-(sulfooxy)azetidin-3-yl)amino)-2-oxoethylidene)amino)oxy)propanoic acid]	6.25 µM	3.125 µM	6.25 µM
CC1(C)[C@H](NC(=O)/C(=N\O[C@](C)(C(=O)O)[C@H]2CCc3cc(C(=N)N[C@H]4C[C@@H](N)C4)ccc3O2)c2csc(N)n2)C(=O)N1OS(=O)(=O)O [Compound 7, (S)-2-((R)-6-(N-((1 s,3S)-3-aminocyclobutyl)carbamimidoyl)chroman-2-yl)-2-((((Z)-1-(2-aminothiazol-4-yl)-2-(((S)-2,2-dimethyl-4-oxo-1-(sulfooxy)azetidin-3-yl)amino)-2-oxoethylidene)amino)oxy)propanoic acid]	–	1.563 µM	–
COCc1c(C(=N)N[C@H]2C[C@@H](N)C2)ccc2c1CC[C@H]([C@](C)(O/N=C(\C(=O)N[C@@H]1C(=O)N(OS(=O)(=O)O)C1(C)C)c1csc(N)n1)C(=O)O)O2 [Compound 124, (S)-2-((R)-6-(N-((1s,3S)-3-aminocyclobutyl)carbamimidoyl)-5-(methoxymethyl)chroman-2-yl)-2-((((Z)-1-(2-aminothiazol-4-yl)-2-(((S)-2,2-dimethyl-4-oxo-1-(sulfooxy)azetidin-3-yl)amino)-2-oxoethylidene)amino)oxy)propanoic acid]	–	3.125 µM	50 µM
CC1(C)[C@H](NC(=O)/C(=N\O[C@](C)(C(=O)O)[C@H]2CCc3cc(C(=N)N[C@H]4C[C@@](N)(C[C@@H](O)CO)C4)ccc3O2)c2csc(N)n2)C(=O)N1OS(=O)(=O)O [Compound 95, (S)-2-((R)-6-(N-((1R,3R)-3-amino-3-((R)-2,3-dihydroxypropyl)cyclobutyl)carbamimidoyl)chroman-2-yl)-2-((((Z)-1-(2-aminothiazol-4-yl)-2-(((S)-2,2-dimethyl-4-oxo-1-(sulfooxy)azetidin-3-yl)amino)-2-oxoethylidene)amino)oxy)propanoic acid]	–	1.563 µM	6.25 µM
CC1(C)[C@H](NC(=O)/C(=N\O[C@](C)(C(=O)O)[C@H]2CCc3cc(C(=N)N[C@H]4C[C@]5(CCNC5)C4)ccc3O2)c2csc(N)n2)C(=O)N1OS(=O)(=O)O [Compound 22, (S)-2-((R)-6-(N-((2r,4S)-6-azaspiro[3.4]octan-2-yl)carbamimidoyl)chroman-2-yl)-2-((((Z)-1-(2-aminothiazol-4-yl)-2-(((S)-2,2-dimethyl-4-oxo-1-(sulfooxy)azetidin-3-yl)amino)-2-oxoethylidene)amino)oxy)propanoic acid]	–	1.563 µM	–
